Source: PMC11224359, “Stable peptide-assembled nanozyme mimicking dual antifungal actions” (Nature Communications, 2024)

Assay: Peptide self-assembly morphology by TEM
Assay type: physicochemical
Experimental: Powders of each of the peptides were dissolved in 1.5 mM Ni(Ac)2 solution to a certain concentration range (e.g. 0.0–1.5 mM) and sonicated for a period of time, and were then allowed to cool gradually to 25 °C overnight. Aged samples could be left at room temperature for more than 90 days.
TEM images were recorded using a JEM1200EX (JEOL) (Japan) operating at 100 kV dropped on a double copper net. Typically, 1.5 mM samples are diluted 10-fold and stained with 3% uranyl acetate for viewing. For AFM, liquid Ni-IH-7 ([…]) was dropped on a mica sheet and observed by Bruker Dension Icon (Germany). The AMFM data were fitted using the Analyze panel module in Igor Pro software to obtain a modulus curve, yielding the average Young’s modulus. Simultaneously, we utilized the Hertz model force curve fitting results to validate the reliability of the Young’s modulus. Cryo-EM and two-dimensional classification data of Ni-IH-7 were collected by Talos Arctica 200 kV FEG (USA). AMFM was tested using Cypher S (USA) in the presence of AC160TS-R3 (probe). Samples were diluted 50 times and dried on mica flakes. KPFM was tested using Cypher S (USA) and obtain the Contact potential difference. The standard highly oriented pyrolytic graphite was 675 mV. HAADF-STEM was obtained by JEM ARM 200 F (accelerating voltage: 200 kV) (JEOL, Japan).

## ICICICI [heptapeptide ICICICI]
  assembly into nanostructure: could not form typical nanostructure
